The source of these data is patent US4372964A, “Antiinflammatory 4,5-diaryl-1H-imidazole-2-methanols” (E. I. Du Pont de Nemours and Company, priority 1981, dated 1983).

SMILES strings stand for the structures.

In experiment [1] the test system is adjuvant-induced arthritis in rats. The experiment is described as follows: Established Adjuvant-Induced Arthritis in Rats. In kind it is in vivo, Lewis (Wistar) male rats. The note with it: Rattus norvegicus.
Experiment [2] deals with phenylquinone writhing in mice. The experiment is described as follows: Phenylquinone Writhing Test. Type of experiment: in vivo, female white mice. The settings on record: Mus musculus, oral, observed from 30 minutes after dosing for 10 minutes. Here is the method: Aqueous (0.10% phenyl-p-benzoquinone) phenylquinone was injected intraperitoneally at 24 minutes later using 0.20 ml per mouse.
On the technique in general: An intraperitoneal irritant provokes the stretching counted in writhing tests.

A word on the ED50: it is the dose that gives a 50% effect, or the effect in half of the subjects. Regarding `COc1ccc(-c2nc(C(=O)C(F)(F)F)n(C)c2-c2ccc(OC)cc2)cc1` [Example 36, 1-[4,5-bis(4-methoxyphenyl)-1-methyl-1H-imidazol-2-yl]-2,2,2-trifluoro-1-ethanone], the inhibition in vivo at 25 mg/kg in experiment [1] (168 h, Table 4, dose 25 mg/kg, oral once daily 7 days, read-out: Adjuvant Arthritis, percent reduction in paw volume at the indicated dose) came to 28%. Besides, in experiment [2] (Table 4, Formula II), the 50% effective dose (ED50) is above 108 mg/kg.

Turning to `COc1ccc(-c2nc(C(O)(C(F)F)C(F)(F)F)[nH]c2-c2ccc(OC)cc2)cc1` (stereo not drawn) [Example 15, 4,5-bis(4-methoxyphenyl)-α-difluoromethyl-α-trifluoromethyl-1H-imidazole-2-methanol], the median effective dose (ED50) in experiment [1] (Table 3, Formula I, oral once daily 7 days (days 14-20), decrease from control paw volume, day 21) was 3 mg/kg; in experiment [2] (Table 3, Formula I), 1.4 mg/kg.
